Results published in article PMC8400480, “Synthesis, Antibacterial and Pharmacokinetic Evaluation of Novel Derivatives of Harmine N^9-Cinnamic Acid” (Molecules, 2021).
In brackets after ≈: the same amount, converted by molar mass. Like-named read-outs stand apart in the source and are kept apart here.

How the values were obtained:
S. aureus (CICC 10384) = assay: Bactericidal time-kill kinetics; type: cell-based, Staphylococcus aureus
Description: The bacteria S. aureus was prepared in Muellere Hinton broth at 37 °C for 6 h with shaking. The solution of 3c (1 × MIC and 6 × MIC), 5a (1 × MIC and 6 × MIC), harmine (1 × MIC and 6 × MIC) and saline (served as a control group) were separately added to the bacterial suspension so that the final bacterial concentration were 10^6~10^7 CFU/mL. At the predetermined time point (0, 0.5, 2, 4, 6, 12 and 24 h), […] of aliquots were serially diluted in normal saline, plated on sterile Muellere Hinton agar plates, and incubated at 37 °C for 24 h. After incubation, the viable colonies were counted and represented as log10 (CFU/mL). The same procedure was repeated in triplicate.
Figure 3 Time-kill kinetics of compound 3c (A) and 5a (B) at 1 × and 6 × MIC against S. aureus (CICC 10384).

[1] = In vivo pharmacokinetic study in rats; details: both sexes, Sprague-Dawley, plasma, rat
Description: Adult males and females Sprague Dawley rats, with average weight of 200–250 g, were purchased from the Experiment Animal Center of Lanzhou University (Lanzhou, China). The rats were housed under an environmentally controlled room for one week before staring the experiment. All procedures were performed according to the guidelines issued by the Ethical Committee of Lanzhou University (Permit Number: SYXK(Gan)-2018-0002).
After 7 days acclimatization, rats were randomly divided into two groups with half male and half female in each group (n = 6). All animals were fasted for 12 h with access to water prior to dosing. One group was intravenously administered with 3c at dose of 10 mg/kg. Another group was oral administered with 3c at dose of 40 mg/kg. Approximately 0.3 mL of blood samples were collected into heparinized tubes from the orbital vein at 0.083, 0.25, 0.5, 0.75, 1, 2, 4, 8, 12 and 24 h after the administration. The heparinized blood samples were immediately centrifuged at 4000 rpm for 10 min and the upper plasma was separated and immediately stored at −20 °C used for UPLC-MS/MS analysis.
Plasma samples were processed as follows. First, 100 μL of plasma samples and 50 μL of tinidazole (1000 ng/mL, internal standard) were mixed by vortex for 1 min. Next, 250 μL of acetonitrile were added to the mixture and vortexed for 10 min. After centrifugation at 10,000 rpm for 10 min, 200 μL of the upper organic layer were removed into 1.5 mL centrifuge tube and dried with nitrogen. Finally, the residue was reconstituted in 100 μL of 50% acetonitrile, vortexed for 1 min, centrifuged at 10,000 rpm for 10 min, and then the supernatant was used for UPLC-MS/MS analysis.
The obtained data were analyzed using a non-compartment open model with PKsolver Software. Pharmacokinetic parameters and the experiment data were expressed as the mean ± standard deviation (SD). A paired student’s t-test was used for statistical analysis, with p < 0.05 considered the minimum level of significance.

[2] = tested on: MCF-7 (human breast cancer cells); assay: In vitro cytotoxic activity, MTT assay; type: cell-based; details: read-out: IC50 MCF-7
Description: (§1) In vitro cytotoxic activity of 3c was evaluated using MTT (3-(4,5)-dimethylthi ahiazo (-2)-3,5-diphenytetrazoliiumromide) assay using WI-38 (Human embryonic lung fibroblasts), MCF-7 (human breast cancer cells) and HepG2 (human liver carcinoma cells). Harmine was used as a control.
(§2) The in vitro cytotoxicity of 3c was determined using MTT assay. WI-38 (Human embryonic lung fibroblasts), MCF-7 (Human breast cancer cells) and HepG2 (human liver carcinoma cells) were purchased from American Type Culture Collection (Manassas, VA, USA). The cells were maintained using Dulbecco’s modified eagle’s medium (DMEM, Sangon Biotech, Shanghai, China) supplemented with 10% fetal bovine serum (FBS, Sijiqing Bioengineering Material Co., Ltd., Hangzhou, China), 100 U/mL penicillin and 100 μg/mL streptomycin in a humidified 37 °C incubator under 5% CO2. 100 μL culture medium at a concentration of 1 × 10^4 cells/mL was added to 96-well plate and incubated in a humidified 37 °C incubator under 5% CO2. After 24 h, 10 µL solution of 3c and harmine dissolved in DMSO and PBS and then diluted with DMEM under a concentration gradient, which was added in the wells for final concentrations of 1000, 500, 250, 125, 62.5 µmol/L of compounds in WI-38 and 160, 80, 40, 20, 10 µmol/L of compounds in MCF-7 and Hep-G2. After 48 h incubation, 10 μL MTT solution (5 mg/mL) was added into each well and incubated in a humidified 37 °C incubator under 5% CO2. After 4 h, the supernatant was removed and 150 μL DMSO was added. The absorbance of each well was determined by an enzyme-linked immunosorbent assay reader (Thermo Fisher Scientific Inc., Rochester, NY, USA) at wavelengths of 570 nm. The experiments were performed in triplicate.

[3] = tested on: HepG2 (human liver carcinoma cells); assay: In vitro cytotoxic activity, MTT assay; type: cell-based; details: read-out: IC50 HepG2
Description: as §1, §2

[4] = tested on: WI-38 (Human embryonic lung fibroblasts); assay: In vitro cytotoxic activity, MTT assay; type: cell-based; details: read-out: IC50 WI-38
Description: as §1, §2

[5] = tested on: Pseudomonas aeruginosa CVCC 3359 (PA); assay: MIC, microplate dilution method; type: cell-based; details: read-out: MIC PA
From the text: (§3) According to microplate dilution method, all the prepared compounds were screened for their in vitro antibacterial activity. The investigation included three representative Gram-positive strains, including Staphylococcus aureus CICC 10384 (S. aureus), Staphylococcus albus CICC 20237 (S. albus) and methicillinresistant Staphylococcus aureus ATCC 43300 (MRSA), and two representative Gram-negative strains, including Escherichia coli CICC 10389 (E. coli) and Pseudomonas aeruginosa CVCC 3359 (PA). Harmine and cinnamic acid were used as reference drugs.
(§4) The antibacterial efficiency of all prepared compounds was determined using the microplate dilution method. All compounds were prepared into different concentrations of stock solution according to their solubility. The compounds were added to the 96 well plate and serially diluted in Mueller-Hinton broth. Three Gram-positive strains (S. aureus, S. albus and MRSA) and two Gram-negative strains (E. coli and PA) were cultivated and added to the 96 well plate. The initial concentration of bacteria should be higher than 10^5 CFU/mL. The samples were incubated at 37 °C for 18–24 h. The MIC was determined for compounds by observing change of clarity in the broth. The same procedure was repeated in triplicate.

[6] = tested on: Staphylococcus albus CICC 20237 (S. albus); assay: MIC, microplate dilution method; type: cell-based; details: read-out: MIC S. albus
From the text: as §3, §4

[7] = tested on: Escherichia coli CICC 10389 (E. coli); assay: MIC, microplate dilution method; type: cell-based; details: read-out: MIC E. coli
From the text: as §3, §4

[8] = tested on: methicillinresistant Staphylococcus aureus ATCC 43300 (MRSA); assay: MIC, microplate dilution method; type: cell-based; details: read-out: MIC MRSA
From the text: as §3, §4

[9] = tested on: Staphylococcus aureus CICC 10384 (S. aureus); assay: MIC, microplate dilution method; type: cell-based; details: read-out: MIC S. aureus
From the text: as §3, §4

[10] = iv, i.v. 10 mg/kg, single dose, n = 6, Mean ± SD
[11] = po, i.g. 40 mg/kg, single dose, n = 6, Mean ± SD
[12] = Gram-negative, Mueller-Hinton broth, 37 °C, 18–24 h
[13] = Gram-positive, Mueller-Hinton broth, 37 °C, 18–24 h

## COc1ccc2c3ccnc(C)c3n(CCCOC(=O)/C=C/c3ccccc3[N+](=O)[O-])c2c1 [Compound 3c, 4-(7-Methoxy-1-methyl-9H-pyridine [3,4-b]indole-9-yl) propyl(E)-3-(2-nitrophenyl) acrylate]
S. aureus (CICC 10384); 1 × MIC
  time to 4-log10 reduction: about 4 h
S. aureus (CICC 10384); 6 × MIC
  time to completely kill the bacteria: ≤ 0.5 h
[1]; [10]
  AUC(0-inf): 1050 ± 231 ng·h/mL
  AUC(0-t): 1050 ± 229 ng·h/mL
  Cmax: 837 ± 229 ng/mL
  MRT: 2.86 ± 0.71 h
  Tmax: 4.98 ± 1.8 min
  half-life: 136 ± 37.2 min
[1]; oral, i.g. 40 mg/kg vs i.v. 10 mg/kg, from AUC0→∞
  bioavailability: 6.9%
[1]; [11]
  AUC(0-inf): 290 ± 55.2 ng·h/mL
  AUC(0-t): 284 ± 54.4 ng·h/mL
  CL/F: 4.33 mL/min/kg
  Cmax: 159 ± 59.6 ng/mL
  MRT: 3.33 ± 0.83 h
  Tmax: 15 ± 1.98 min
  half-life: 78 ± 28.2 min
[2]; MCF7, MTT, 48 h incubation, n = 3, Mean ± SD
  IC50: 94.9 ± 3.64 µM
[3]; HepG2, MTT, 48 h incubation, n = 3, Mean ± SD
  IC50: 161.7 ± 1.31 µM
[4]; WI-38, MTT, 48 h incubation, n = 3, Mean ± SD
  IC50: 340.3 ± 2.79 µM
[5]; [12]
  MIC: 219 µg/mL (≈ 491 µM)
[6]; [13]
  MIC: 13.7 µg/mL (≈ 30.7 µM)
[7]; [12]
  MIC: 219 µg/mL (≈ 491 µM)
[8]; [13]
  MIC: 54.7 µg/mL (≈ 123 µM)
[9]; [13]
  MIC: 13.7 µg/mL (≈ 30.7 µM)
other
  melting point: 128.6 to 129.3 °C

## COc1ccc2c(c1)[nH]c1c(C)nccc12 [Harmine, 7-methoxy-1-methyl-9H-pyridine [3,4-b] indole]
S. aureus (CICC 10384); 1 × MIC
  time-kill effect in words: just slowed bacterial propagation
S. aureus (CICC 10384); 6 × MIC
  time to 4-log10 reduction: about 24 h
[2]; MCF7, 48 h
  IC50: 78.9 ± 2.82 µM
[3]; HepG2, 48 h
  IC50: 67.6 ± 1.6 µM
[4]; WI-38, 48 h
  IC50: 103.4 ± 0.96 µM
[5]
  MIC: 15.6 µg/mL (≈ 73.6 µM)
[6]
  MIC: 15.6 µg/mL (≈ 73.6 µM)
[7]
  MIC: 15.6 µg/mL (≈ 73.6 µM)
[8]
  MIC: 62.5 µg/mL (≈ 294 µM)
[9]
  MIC: 31.2 µg/mL (≈ 147 µM)
